From PubChem BioAssay AID1982 (Sanford-Burnham Center for Chemical Genomics, 2009)
The source made the active and inactive calls. How the calls were made is not given here.

Assays:
Assay in all cases: kinase panel binding selectivity, selectivity assay, biochemical, KINOMEscan (AID 1982)
[1] = molecular target: 5'-AMP-activated protein kinase catalytic subunit alpha-1 (Homo sapiens) (UniProt Q13131); conditions: KINOMEscan 353-kinase binding panel, qPCR; AMPK-alpha1; at 10 µM; hits give low values
ADCK4 = conditions: KINOMEscan 353-kinase binding panel, qPCR, at 10 µM, hits give low values
[2] = molecular target: Aurora kinase A (Homo sapiens) (UniProt O14965); conditions: KINOMEscan 353-kinase binding panel, qPCR; AURKA; at 10 µM; hits give low values
BIKE = conditions: KINOMEscan 353-kinase binding panel, qPCR, at 10 µM, hits give low values
CAMKK1 = conditions: KINOMEscan 353-kinase binding panel, qPCR, at 10 µM, hits give low values
CHEK2 = conditions: KINOMEscan 353-kinase binding panel, qPCR, at 10 µM, hits give low values
CSNK1E = conditions: KINOMEscan 353-kinase binding panel, qPCR, at 10 µM, hits give low values
[3] = molecular target: Calcium/calmodulin-dependent protein kinase type 1 (Homo sapiens) (UniProt Q14012); conditions: KINOMEscan 353-kinase binding panel, qPCR; CAMK1; at 10 µM; hits give low values
[4] = molecular target: Cyclin-dependent kinase 5 (Homo sapiens) (UniProt Q00535); conditions: KINOMEscan 353-kinase binding panel, qPCR; CDK5; at 10 µM; hits give low values
DAPK1 = conditions: KINOMEscan 353-kinase binding panel, qPCR, at 10 µM, hits give low values
DCAMKL2 = conditions: KINOMEscan 353-kinase binding panel, qPCR, at 10 µM, hits give low values
EPHA3 = conditions: KINOMEscan 353-kinase binding panel, qPCR, at 10 µM, hits give low values
EPHA6 = conditions: KINOMEscan 353-kinase binding panel, qPCR, at 10 µM, hits give low values
EPHA8 = conditions: KINOMEscan 353-kinase binding panel, qPCR, at 10 µM, hits give low values
GCN2(Kin.Dom.2,S808G) = conditions: KINOMEscan 353-kinase binding panel, qPCR, at 10 µM, hits give low values
IRAK3 = conditions: KINOMEscan 353-kinase binding panel, qPCR, at 10 µM, hits give low values
[5] = molecular target: Insulin-like growth factor 1 receptor (Homo sapiens) (UniProt P08069); conditions: KINOMEscan 353-kinase binding panel, qPCR; IGF1R; at 10 µM; hits give low values
LATS2 = conditions: KINOMEscan 353-kinase binding panel, qPCR, at 10 µM, hits give low values
LIMK2 = conditions: KINOMEscan 353-kinase binding panel, qPCR, at 10 µM, hits give low values
[6] = molecular target: MAP kinase-activated protein kinase 2 (Homo sapiens) (UniProt P49137); conditions: KINOMEscan 353-kinase binding panel, qPCR; MAPKAPK2; at 10 µM; hits give low values
MEK3 = conditions: KINOMEscan 353-kinase binding panel, qPCR, at 10 µM, hits give low values
[7] = molecular target: Maternal embryonic leucine zipper kinase (Homo sapiens) (UniProt Q14680); conditions: KINOMEscan 353-kinase binding panel, qPCR; MELK; at 10 µM; hits give low values
PAK2 = conditions: KINOMEscan 353-kinase binding panel, qPCR, at 10 µM, hits give low values
PCTK3 = conditions: KINOMEscan 353-kinase binding panel, qPCR, at 10 µM, hits give low values
PIK3CD = conditions: KINOMEscan 353-kinase binding panel, qPCR, at 10 µM, hits give low values
PIK3CG = conditions: KINOMEscan 353-kinase binding panel, qPCR, at 10 µM, hits give low values
PIP5K1A = conditions: KINOMEscan 353-kinase binding panel, qPCR, at 10 µM, hits give low values
[8] = molecular target: Platelet-derived growth factor receptor beta (Homo sapiens) (UniProt P09619); conditions: KINOMEscan 353-kinase binding panel, qPCR; PDGFRB; at 10 µM; hits give low values
RIOK2 = conditions: KINOMEscan 353-kinase binding panel, qPCR, at 10 µM, hits give low values
RIPK4 = conditions: KINOMEscan 353-kinase binding panel, qPCR, at 10 µM, hits give low values
RPS6KA2(Kin.Dom.2) = conditions: KINOMEscan 353-kinase binding panel, qPCR, at 10 µM, hits give low values
SNARK = conditions: KINOMEscan 353-kinase binding panel, qPCR, at 10 µM, hits give low values
STK16 = conditions: KINOMEscan 353-kinase binding panel, qPCR, at 10 µM, hits give low values
TGFBR1 = conditions: KINOMEscan 353-kinase binding panel, qPCR, at 10 µM, hits give low values
TNK1 = conditions: KINOMEscan 353-kinase binding panel, qPCR, at 10 µM, hits give low values
TNNI3K = conditions: KINOMEscan 353-kinase binding panel, qPCR, at 10 µM, hits give low values
[9] = molecular target: Tyrosine-protein kinase receptor TYRO3 (Homo sapiens) (UniProt Q06418); conditions: KINOMEscan 353-kinase binding panel, qPCR, at 10 µM, hits give low values
[10] = molecular target: Wee1-like protein kinase 2 (Homo sapiens) (UniProt P0C1S8); conditions: KINOMEscan 353-kinase binding panel, qPCR; WEE2; at 10 µM; hits give low values
[11] = molecular target: cGMP-dependent protein kinase 2 (Homo sapiens) (UniProt Q13237); conditions: KINOMEscan 353-kinase binding panel, qPCR; PRKG2; at 10 µM; hits give low values

Measured: percent of control binding

Maternal embryonic leucine zipper kinase (Homo sapiens), sequence (Q14680 whole entry, looked up): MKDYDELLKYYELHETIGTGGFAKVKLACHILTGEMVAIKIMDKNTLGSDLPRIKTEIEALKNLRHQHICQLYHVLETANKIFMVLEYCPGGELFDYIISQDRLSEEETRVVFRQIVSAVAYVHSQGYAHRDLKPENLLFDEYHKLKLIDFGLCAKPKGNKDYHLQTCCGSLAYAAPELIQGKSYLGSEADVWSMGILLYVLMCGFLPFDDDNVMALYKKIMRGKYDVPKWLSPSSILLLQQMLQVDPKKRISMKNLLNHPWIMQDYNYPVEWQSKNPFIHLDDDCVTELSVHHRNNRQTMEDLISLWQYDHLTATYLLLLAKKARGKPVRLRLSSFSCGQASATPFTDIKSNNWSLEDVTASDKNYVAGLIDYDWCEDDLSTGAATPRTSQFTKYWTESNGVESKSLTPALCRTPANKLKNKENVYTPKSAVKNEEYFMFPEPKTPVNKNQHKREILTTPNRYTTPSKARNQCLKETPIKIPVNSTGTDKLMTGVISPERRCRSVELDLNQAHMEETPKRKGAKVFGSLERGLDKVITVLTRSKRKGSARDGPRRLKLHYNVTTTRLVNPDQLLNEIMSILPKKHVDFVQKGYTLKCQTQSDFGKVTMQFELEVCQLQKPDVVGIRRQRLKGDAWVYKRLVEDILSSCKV
Insulin-like growth factor 1 receptor (Homo sapiens), sequence (P08069 whole entry, looked up): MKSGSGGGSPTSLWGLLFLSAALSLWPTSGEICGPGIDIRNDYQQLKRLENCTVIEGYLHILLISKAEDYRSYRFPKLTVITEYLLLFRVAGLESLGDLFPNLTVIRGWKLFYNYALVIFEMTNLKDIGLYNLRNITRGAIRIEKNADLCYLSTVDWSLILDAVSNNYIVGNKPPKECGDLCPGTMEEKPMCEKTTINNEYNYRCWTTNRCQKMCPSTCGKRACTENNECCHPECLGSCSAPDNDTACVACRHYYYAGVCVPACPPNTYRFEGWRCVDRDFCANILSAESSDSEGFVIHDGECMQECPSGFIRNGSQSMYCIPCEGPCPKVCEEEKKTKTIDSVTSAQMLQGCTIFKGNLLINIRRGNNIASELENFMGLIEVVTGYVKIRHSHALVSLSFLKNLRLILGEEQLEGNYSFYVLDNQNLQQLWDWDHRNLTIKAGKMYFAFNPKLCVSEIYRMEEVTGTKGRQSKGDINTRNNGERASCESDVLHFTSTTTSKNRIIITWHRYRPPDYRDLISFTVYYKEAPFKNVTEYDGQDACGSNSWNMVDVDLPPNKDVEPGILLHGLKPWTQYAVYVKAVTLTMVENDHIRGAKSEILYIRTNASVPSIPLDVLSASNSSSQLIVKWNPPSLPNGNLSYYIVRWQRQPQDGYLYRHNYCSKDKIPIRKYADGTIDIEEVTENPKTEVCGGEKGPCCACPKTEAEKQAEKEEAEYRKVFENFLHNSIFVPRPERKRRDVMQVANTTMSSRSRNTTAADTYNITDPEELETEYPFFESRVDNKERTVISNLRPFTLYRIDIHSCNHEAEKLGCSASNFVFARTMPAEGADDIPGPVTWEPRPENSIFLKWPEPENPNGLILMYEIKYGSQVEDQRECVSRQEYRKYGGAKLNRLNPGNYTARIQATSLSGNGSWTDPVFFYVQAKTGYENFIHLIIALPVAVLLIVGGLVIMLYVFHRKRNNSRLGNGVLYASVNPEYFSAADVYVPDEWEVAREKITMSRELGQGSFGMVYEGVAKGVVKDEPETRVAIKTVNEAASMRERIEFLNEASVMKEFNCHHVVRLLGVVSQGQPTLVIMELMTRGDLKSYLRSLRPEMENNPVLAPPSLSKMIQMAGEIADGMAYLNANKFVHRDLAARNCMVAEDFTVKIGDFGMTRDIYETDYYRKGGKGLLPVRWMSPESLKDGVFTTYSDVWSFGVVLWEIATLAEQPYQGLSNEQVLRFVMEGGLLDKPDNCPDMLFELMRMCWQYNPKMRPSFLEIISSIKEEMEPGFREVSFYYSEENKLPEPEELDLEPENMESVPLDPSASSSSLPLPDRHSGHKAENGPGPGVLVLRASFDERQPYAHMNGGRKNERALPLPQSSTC
Cyclin-dependent kinase 5 (Homo sapiens), sequence (Q00535 whole entry, looked up): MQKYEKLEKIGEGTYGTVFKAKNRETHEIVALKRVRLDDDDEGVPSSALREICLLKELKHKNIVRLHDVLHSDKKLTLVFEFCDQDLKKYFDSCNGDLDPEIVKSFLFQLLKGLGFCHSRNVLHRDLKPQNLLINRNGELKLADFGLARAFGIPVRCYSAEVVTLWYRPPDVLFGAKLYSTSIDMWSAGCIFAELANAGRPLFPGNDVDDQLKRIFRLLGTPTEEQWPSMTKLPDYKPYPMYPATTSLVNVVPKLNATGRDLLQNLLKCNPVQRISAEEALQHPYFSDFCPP
5'-AMP-activated protein kinase catalytic subunit alpha-1 (Homo sapiens), sequence (Q13131 whole entry, looked up): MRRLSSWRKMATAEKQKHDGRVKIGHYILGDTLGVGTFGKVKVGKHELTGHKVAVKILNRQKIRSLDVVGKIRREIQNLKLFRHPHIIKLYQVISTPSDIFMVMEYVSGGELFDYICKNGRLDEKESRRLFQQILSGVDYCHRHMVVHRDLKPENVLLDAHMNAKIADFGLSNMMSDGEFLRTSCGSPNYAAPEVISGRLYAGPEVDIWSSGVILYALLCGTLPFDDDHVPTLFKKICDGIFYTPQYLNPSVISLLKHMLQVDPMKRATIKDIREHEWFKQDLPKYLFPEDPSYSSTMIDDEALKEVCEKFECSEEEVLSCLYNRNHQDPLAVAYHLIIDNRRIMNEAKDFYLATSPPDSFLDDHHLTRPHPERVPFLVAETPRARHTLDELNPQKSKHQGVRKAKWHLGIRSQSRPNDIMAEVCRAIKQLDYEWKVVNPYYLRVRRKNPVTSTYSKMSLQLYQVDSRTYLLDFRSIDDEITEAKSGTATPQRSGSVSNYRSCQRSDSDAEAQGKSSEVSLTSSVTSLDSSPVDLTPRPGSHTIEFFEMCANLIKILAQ
Platelet-derived growth factor receptor beta (Homo sapiens), sequence (P09619 whole entry, looked up): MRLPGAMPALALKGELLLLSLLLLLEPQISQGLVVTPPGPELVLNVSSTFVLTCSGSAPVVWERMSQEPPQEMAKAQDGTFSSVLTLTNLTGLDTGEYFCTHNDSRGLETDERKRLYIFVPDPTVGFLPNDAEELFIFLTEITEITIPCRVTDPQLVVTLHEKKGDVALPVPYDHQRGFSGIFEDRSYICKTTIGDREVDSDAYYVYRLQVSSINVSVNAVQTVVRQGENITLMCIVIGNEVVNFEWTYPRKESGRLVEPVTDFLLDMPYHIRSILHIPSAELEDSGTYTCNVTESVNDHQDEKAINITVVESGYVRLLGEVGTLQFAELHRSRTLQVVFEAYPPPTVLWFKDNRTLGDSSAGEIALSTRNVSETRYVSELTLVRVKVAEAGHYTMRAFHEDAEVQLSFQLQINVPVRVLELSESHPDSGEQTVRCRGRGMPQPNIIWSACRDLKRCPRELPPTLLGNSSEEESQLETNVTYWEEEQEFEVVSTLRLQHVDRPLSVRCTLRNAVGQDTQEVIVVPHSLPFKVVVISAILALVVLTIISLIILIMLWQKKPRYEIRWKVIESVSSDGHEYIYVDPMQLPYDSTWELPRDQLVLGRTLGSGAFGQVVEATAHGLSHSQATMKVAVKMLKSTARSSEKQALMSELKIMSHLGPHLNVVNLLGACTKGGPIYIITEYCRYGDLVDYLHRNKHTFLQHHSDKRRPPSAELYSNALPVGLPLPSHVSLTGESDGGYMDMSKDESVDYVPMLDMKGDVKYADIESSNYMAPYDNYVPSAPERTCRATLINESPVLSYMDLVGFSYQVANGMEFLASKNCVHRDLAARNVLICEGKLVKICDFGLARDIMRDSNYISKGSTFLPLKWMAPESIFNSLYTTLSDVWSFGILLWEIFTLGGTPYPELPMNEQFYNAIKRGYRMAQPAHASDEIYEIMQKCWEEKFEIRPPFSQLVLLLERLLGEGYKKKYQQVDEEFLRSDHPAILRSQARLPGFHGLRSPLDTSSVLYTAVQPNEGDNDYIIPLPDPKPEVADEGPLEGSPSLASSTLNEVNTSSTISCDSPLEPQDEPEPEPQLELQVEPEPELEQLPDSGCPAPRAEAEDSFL
Wee1-like protein kinase 2 (Homo sapiens), sequence (P0C1S8 whole entry, looked up): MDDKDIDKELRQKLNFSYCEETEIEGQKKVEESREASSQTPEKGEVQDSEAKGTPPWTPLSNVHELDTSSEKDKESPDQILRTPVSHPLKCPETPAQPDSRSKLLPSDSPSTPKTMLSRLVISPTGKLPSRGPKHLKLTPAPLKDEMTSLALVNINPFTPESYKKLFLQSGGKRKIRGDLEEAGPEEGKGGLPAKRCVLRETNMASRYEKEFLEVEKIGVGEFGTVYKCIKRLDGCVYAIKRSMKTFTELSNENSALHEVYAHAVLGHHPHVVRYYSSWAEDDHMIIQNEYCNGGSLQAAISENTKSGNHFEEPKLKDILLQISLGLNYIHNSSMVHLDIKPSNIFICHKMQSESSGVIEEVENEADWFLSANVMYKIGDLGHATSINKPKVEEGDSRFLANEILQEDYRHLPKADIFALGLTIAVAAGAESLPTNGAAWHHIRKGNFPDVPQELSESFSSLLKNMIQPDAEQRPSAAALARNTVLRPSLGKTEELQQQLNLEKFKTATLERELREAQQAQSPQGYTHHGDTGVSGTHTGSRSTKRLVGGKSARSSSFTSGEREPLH
Calcium/calmodulin-dependent protein kinase type 1 (Homo sapiens), sequence (Q14012 whole entry, looked up): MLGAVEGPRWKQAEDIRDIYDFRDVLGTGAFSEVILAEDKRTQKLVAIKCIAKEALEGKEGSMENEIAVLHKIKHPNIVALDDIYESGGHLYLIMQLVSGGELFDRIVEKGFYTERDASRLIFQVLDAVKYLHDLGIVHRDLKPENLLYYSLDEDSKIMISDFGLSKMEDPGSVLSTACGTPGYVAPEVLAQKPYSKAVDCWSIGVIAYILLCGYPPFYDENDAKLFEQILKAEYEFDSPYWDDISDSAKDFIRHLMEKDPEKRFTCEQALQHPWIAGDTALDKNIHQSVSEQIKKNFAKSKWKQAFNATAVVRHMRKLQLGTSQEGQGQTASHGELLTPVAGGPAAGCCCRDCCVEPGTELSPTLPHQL

Cc1cc2nc(NCCCO)n(CC(=O)c3cc(C(C)(C)C)c(O)c(C(C)(C)C)c3)c2cc1C
inactive: [1] 94% | ADCK4 100% | [2] 96% | BIKE 98% | CAMKK1 78% | CHEK2 100% | CSNK1E 96% | [3] 100% | [4] 76% | DAPK1 87% | DCAMKL2 89% | EPHA3 84% | EPHA6 93% | EPHA8 88% | GCN2(Kin.Dom.2,S808G) 95% | IRAK3 100% | [5] 54% | LATS2 89% | LIMK2 80% | [6] 81% | MEK3 100% | [7] 93% | PAK2 84% | PCTK3 82% | PIK3CD 65% | PIK3CG 86% | PIP5K1A 77% | [8] 87% | RIOK2 96% | RIPK4 89% | RPS6KA2(Kin.Dom.2) 100% | SNARK 80% | STK16 77% | TGFBR1 92% | TNK1 80% | TNNI3K 82% | [9] 100% | [10] 100% | [11] 100%
